From patent US20170000133A1, “BENZOXABOROLE FUNGICIDES” (SYNGENTA PARTICIPATIONS AG, priority 2013, published 2017)
Where two headings read alike, the source gives them in different places.

Key:
Plasmopara viticola = experiment: whole plant or invertebrate; assay type: in vivo; settings: foliar, read-out: disease control
Pythium ultimum = Pythium ultimum / liquid culture (seedling damping off); assay type: cell-based; settings: Globisporangium ultimum, read-out: disease control (inhibition of growth determined photometrically)
[1] = test system: Monographella nivalis (Microdochium nivale); experiment: Monographella nivalis (Microdochium nivale) / liquid culture (foot rot cereals); assay type: cell-based; settings: PDB potato dextrose broth, 24° C., 4-5 days after application, read-out: disease control (inhibition of growth determined photometrically)
Gaeumannomyces graminis = Gaeumannomyces graminis / liquid culture (take-all of cereals); assay type: cell-based; settings: PDB potato dextrose broth, 24° C., 4-5 days after application, read-out: disease control (inhibition of growth determined photometrically)
Protocol: 14. Gaeumannomyces graminis/Liquid Culture (Take-all of Cereals): Mycelial fragments of the fungus from cryogenic storage were directly mixed into nutrient broth (PDB potato dextrose broth). After placing a DMSO solution of test compound into a 96-well microtiter plate at an application rate of 200 ppm, the nutrient broth […], containing the fungal spores is added. The test plates were incubated at 24° C. and the inhibition of growth was determined photometrically 4-5 days after application.

[2] = test system: Thanatephorus cucumeris (Rhizoctonia solani); experiment: Thanatephorus cucumeris (Rhizoctonia solani) / liquid culture (foot rot, damping-off); assay type: cell-based; settings: PDB potato dextrose broth, 24° C., 3-4 days after application, read-out: disease control (inhibition of growth determined photometrically)
Protocol: 17. Thanatephorus cucumeris (Rhizoctonia solani)/Liquid Culture (Foot Rot, Damping-Off): Mycelia fragments of a newly grown liquid culture of the fungus were directly mixed into nutrient broth (PDB potato dextrose broth). After placing a DMSO solution of the test compounds into a 96-well microtiter plate at an application rate of 200 ppm, the nutrient broth containing the fungal material was added. The test plates were incubated at 24° C. and the inhibition of growth was determined photometrically 3-4 days after application.

[3] = 200 ppm, potato dextrose broth, 24° C., 2-3 days after application

Row | SMILES | pest or weed control at 200 ppm (Plasmopara viticola) | inhibition at 200 ppm (Pythium ultimum; [3]) | other results
1 | O=C(NCc1ccccc1F)c1cc2c(cc1Cl)COB2O [Compound 73] | ≥ 80% | ≥ 80% | –
2 | O=C(NCc1ccccc1OC(F)(F)F)c1cc2c(cc1Cl)COB2O [Compound 95] | ≥ 80% | – | inhibition at 200 ppm [1]: ≥ 80%
3 | O=C(NCCc1c[nH]c2ccccc12)c1cc2c(cc1Cl)COB2O [Compound 97] | – | ≥ 80% | inhibition at 200 ppm (Gaeumannomyces graminis): ≥ 80%
4 | O=C(NCc1ccccc1C(F)(F)F)c1cc2c(cc1Cl)COB2O [Compound 99] | – | ≥ 80% | inhibition at 200 ppm [1]: ≥ 80%
5 | O=C(NCc1ccc(Oc2ccccc2)cc1)c1cc2c(cc1Cl)COB2O [Compound 103] | ≥ 80% | ≥ 80% | inhibition at 200 ppm (Gaeumannomyces graminis): ≥ 80%; inhibition at 200 ppm [1]: ≥ 80%
6 | CC(NC(=O)c1cc2c(cc1F)COB2O)c1ccccc1 (stereo not shown) [Compound 109] | ≥ 80% | ≥ 80% | –
7 | O=C(Nc1ccc(-n2cccc2)cc1)c1cc2c(cc1Cl)COB2O [Compound 125] | – | ≥ 80% | inhibition at 200 ppm (Gaeumannomyces graminis): ≥ 80%
8 | Cc1cc(=O)oc2cc(NC(=O)c3cc4c(cc3Cl)COB4O)ccc12 [Compound 139] | – | ≥ 80% | inhibition at 200 ppm (Gaeumannomyces graminis): ≥ 80%
9 | O=C(Nc1ccc(S(=O)(=O)Nc2ccccn2)cc1)c1cc2c(cc1Cl)COB2O [Compound 143] | ≥ 80% | ≥ 80% | –
10 | Cc1ccccc1NC(=O)c1cc2c(cc1F)COB2O [Compound 148] | – | ≥ 80% | inhibition at 200 ppm [2]: ≥ 80%
11 | COc1ccc(NC(=O)c2cc3c(cc2F)COB3O)c(OC)c1 [Compound 155] | ≥ 80% | ≥ 80% | –
12 | O=C(Nc1cccc(F)c1)c1cc2c(cc1F)COB2O [Compound 157] | – | ≥ 80% | inhibition at 200 ppm (Gaeumannomyces graminis): ≥ 80%
13 | O=C(Nc1ccccc1N1CCOCC1)c1cc2c(cc1F)COB2O [Compound 170] | ≥ 80% | ≥ 80% | –
14 | O=C(Nc1ccc(S(=O)(=O)Nc2ccccn2)cc1)c1cc2c(cc1F)COB2O [Compound 174] | ≥ 80% | ≥ 80% | –
15 | Cc1nnc(NC(=O)c2cc3c(cc2F)COB3O)s1 [Compound 184] | ≥ 80% | ≥ 80% | –
16 | O=C(Nc1ccc(Oc2ccccc2)nc1)c1cc2c(cc1F)COB2O [Compound 185] | ≥ 80% | ≥ 80% | –
17 | O=C(OCCc1ccc(Cl)cc1Cl)c1cc2c(cc1Cl)COB2O [Compound 190] | – | – | inhibition at 200 ppm (Gaeumannomyces graminis): ≥ 80%; inhibition at 200 ppm [1]: ≥ 80%
18 | O=C(OCc1ccc(C(F)(F)F)cc1Cl)c1cc2c(cc1Cl)COB2O [Compound 200] | – | – | inhibition at 200 ppm (Gaeumannomyces graminis): ≥ 80%; inhibition at 200 ppm [1]: ≥ 80%
19 | O=C(OCc1ccco1)c1cc2c(cc1Cl)COB2O [Compound 210] | – | ≥ 80% | inhibition at 200 ppm (Gaeumannomyces graminis): ≥ 80%; inhibition at 200 ppm [2]: ≥ 80%
20 | N#CCOC(=O)c1cc2c(cc1Cl)COB2O [Compound 213] | ≥ 80% | ≥ 80% | –
21 | C=CCC(OC(=O)c1cc2c(cc1Cl)COB2O)C(=O)OC (stereo not shown) [Compound 222] | – | ≥ 80% | inhibition at 200 ppm [1]: ≥ 80%; inhibition at 200 ppm [2]: ≥ 80%
22 | O=C(NCc1ccccc1F)c1ccc2c(c1)B(O)OC2 [Compound 262] | ≥ 80% | ≥ 80% | –
23 | O=C(NCc1cccc(Cl)c1)c1ccc2c(c1)B(O)OC2 [Compound 268] | ≥ 80% | ≥ 80% | –
24 | O=C(NCc1ccccc1OC(F)(F)F)c1ccc2c(c1)B(O)OC2 [Compound 273] | ≥ 80% | ≥ 80% | –
25 | CC(C)c1ccc(NC(=O)c2ccc3c(c2)B(O)OC3)cc1 [Compound 279] | ≥ 80% | ≥ 80% | inhibition at 200 ppm [1]: ≥ 80%
26 | COc1ccc(NC(=O)c2ccc3c(c2)B(O)OC3)c(OC)c1 [Compound 283] | ≥ 80% | ≥ 80% | –

Row | SMILES | pest or weed control at 200 ppm (Plasmopara viticola) | inhibition at 200 ppm (Pythium ultimum; [3]) | other results
27 | O=C(Nc1cccc(F)c1)c1ccc2c(c1)B(O)OC2 [Compound 285] | ≥ 80% | ≥ 80% | –
28 | COc1ccc(-c2ccccc2)cc1NC(=O)c1ccc2c(c1)B(O)OC2 [Compound 289] | ≥ 80% | ≥ 80% | –
29 | O=C(Nc1cc(C(F)(F)F)ccc1N1CCOCC1)c1ccc2c(c1)B(O)OC2 [Compound 291] | – | – | inhibition at 200 ppm (Gaeumannomyces graminis): ≥ 80%
30 | O=C(Nc1ccccc1-c1cc2ccccc2[nH]1)c1ccc2c(c1)B(O)OC2 [Compound 292] | ≥ 80% | ≥ 80% | inhibition at 200 ppm (Gaeumannomyces graminis): ≥ 80%
31 | O=C(Nc1ccc(Oc2ccccc2)nc1)c1ccc2c(c1)B(O)OC2 [Compound 306] | ≥ 80% | ≥ 80% | –
32 | COC(=O)c1sccc1NC(=O)c1ccc2c(c1)B(O)OC2 [Compound 308] | ≥ 80% | – | inhibition at 200 ppm [1]: ≥ 80%
33 | CC(C#N)OC(=O)c1ccc2c(c1)B(O)OC2 (stereo not shown) [Compound 315] | – | ≥ 80% | inhibition at 200 ppm [2]: ≥ 80%
34 | C[Si](C)(C)CCCOC(=O)c1ccc2c(c1)B(O)OC2 [Compound 316] | – | ≥ 80% | inhibition at 200 ppm (Gaeumannomyces graminis): ≥ 80%; inhibition at 200 ppm [1]: ≥ 80%; inhibition at 200 ppm [2]: ≥ 80%
35 | CC(F)COC(=O)c1ccc2c(c1)B(O)OC2 (stereo not shown) [Compound 335] | ≥ 80% | ≥ 80% | inhibition at 200 ppm [2]: ≥ 80%
36 | N#CCOC(=O)c1ccc2c(c1)B(O)OC2 [Compound 338] | ≥ 80% | ≥ 80% | inhibition at 200 ppm [2]: ≥ 80%
37 | O=C(OCCCC(=O)N1CCCC1)c1ccc2c(c1)B(O)OC2 [Compound 346] | – | ≥ 80% | –
38 | N#CCCOC(=O)c1ccc2c(c1)B(O)OC2 [Compound 357] | ≥ 80% | ≥ 80% | –
39 | CS(=O)(=O)CCOC(=O)c1ccc2c(c1)B(O)OC2 [Compound 358] | – | ≥ 80% | –
40 | O=C(OC1COC1)c1ccc2c(c1)B(O)OC2 [Compound 363] | – | ≥ 80% | –
41 | C=CC(=O)OCC(C)OC(=O)c1cc2c(cc1F)COB2O (stereo not shown) [Compound 372] | – | ≥ 80% | inhibition at 200 ppm [1]: ≥ 80%
42 | CC(C#N)OC(=O)c1cc2c(cc1F)COB2O (stereo not shown) [Compound 376] | ≥ 80% | ≥ 80% | –
43 | CC(CN1CCOCC1)OC(=O)c1cc2c(cc1F)COB2O (stereo not shown) [Compound 383] | – | ≥ 80% | –
44 | O=C(OCCCC(=O)N1CCCC1)c1cc2c(cc1F)COB2O [Compound 408] | – | ≥ 80% | –
45 | COP(=O)(CCOC(=O)c1cc2c(cc1F)COB2O)OC [Compound 416] | – | – | inhibition at 200 ppm (Pythium ultimum): ≥ 80%
46 | N#CCCOC(=O)c1cc2c(cc1F)COB2O [Compound 420] | ≥ 80% | ≥ 80% | –
47 | CS(=O)(=O)CCOC(=O)c1cc2c(cc1F)COB2O [Compound 421] | – | ≥ 80% | –
48 | O=C(OC1COC1)c1cc2c(cc1F)COB2O [Compound 425] | ≥ 80% | ≥ 80% | inhibition at 200 ppm (Gaeumannomyces graminis): ≥ 80%
49 | O=C(OC1CCOC1)c1cc2c(cc1F)COB2O (stereo not shown) [Compound 426] | – | ≥ 80% | –
50 | O=C(OC1CCOCC1)c1cc2c(cc1F)COB2O [Compound 428] | – | ≥ 80% | –
51 | O=C(OCCC(F)(F)F)c1cc2c(cc1F)COB2O [Compound 431] | – | ≥ 80% | inhibition at 200 ppm (Gaeumannomyces graminis): ≥ 80%; inhibition at 200 ppm [1]: ≥ 80%; inhibition at 200 ppm [2]: ≥ 80%
52 | COCCOCCOCCOC(=O)c1cc2c(cc1F)COB2O [Compound 432] | – | ≥ 80% | –
